# In patent US7399826B1, “Peptide for promoting healing of fractures” (priority 2003, dated 2008):
# No end group written: not given here.
# Tested on: ulnar osteotomies in New Zealand rabbits
# Experiment: Ulnar osteotomy fracture healing study in rabbits
# Format: in vivo
# Settings: all rabbits (study and control groups); four-week study
# Method: Ulnar osteotomies were carried out in forty, three-month-old New Zealand rabbits. Half of the rabbits were placed in a study group while the other half was placed in a control group. All the rabbits were anesthetized using intramuscular ketamine 35 mg/kg body weight mixed with Xylazine 5 mg/kg body weight and an ophthalmic band with gentamycin ophthalmic ointment. A dose of prophylactic intramuscular cefuraxmine 25 mg/kg body weight was also administered. The forelimb was shaved and prepped in a sterile fashion. Through a posterior incision, the muscles were retracted and the shaft of the ulna was identified. Osteotomy was carried out equidistant between the olecranon and the wrist joint. The osteotomy was irrigated with normal saline. The wound was closed in layers and dressed with betadine and opsite spray. The animals were kept together in similar conditions. On the third post-operative day, the study group was injected with about 2.5-5 mg/kg of the peptide, synthesized as described above, in 0.25 ml of sterile water around the osteotomy site, while the control group received 0.25 ml of normal saline at the osteotomy site. Every week, five rabbits in the control group and five in the study group were sacrificed and their limbs were dissected and stored in 2% formalin. The study was carried out for four weeks. […]
sequence,measurement,value
"MIFVKTLTGKTIL [SHMSP, Met-Ile-Phe-Val-Lys-Thr-Leu-Thr-Gly-Lys-Thr-Ile-Leu]","tolerability (wound infections, deaths)",no wound infections or deaths
